The values that follow come from ChEMBL document CHEMBL1125324, “Development of a novel class of cyclic hexapeptide oxytocin antagonists based on a natural product” (J Med Chem, 1992).

Each structure is given as a SMILES string. pIC50, pKi: −log10 of the molar value. In brackets after ≈: the same amount, converted by molar mass. *1 amine or outer side, *2 acyl side, *3 side chain or, on linkers, in order; H or OH if unused. Where a SMILES comes first, the peptide text is derived from it. [ ]: non-standard residue; d: D form. X1 = C=CCN([C@H](Cc1ccccc1)C(=O)[*:2])[*:1]; d2Nal = N[C@H](Cc1ccc2ccccc2c1)C(=O)O; Pip(4-aza) = O=C(O)[C@@H]1CNCCN1; dNMeF = CN[C@H](Cc1ccccc1)C(=O)O; Pip = O=C(O)[C@@H]1CCCCN1; dPip = O=C(O)[C@H]1CCCCN1; dNMeA = CN[C@H](C)C(=O)O

Data set [1] in a line: Aqueous solubility was determined. The data set is classed as physicochemical.
Data set [2] addresses T1, Vasopressin V2 receptor (Rattus norvegicus, UniProt Q00788). Kind of data set: Inhibition of [3H]arginine vasopressin binding to AVP-V2 site in rat kidney medulla. The data set is classed as tissue-based.
Data set [3] is filed under the species Rattus norvegicus. Nature of the data set: pA2 value was determined from regression analysis of log (dose ratio-1) vs -log [antagonist] (isolated uterus from DES-pretreated rats). The note with it: read-out: pA2 (converted). The data set is classed as functional.
The target of the next data set is Vasopressin V1a receptor (Rattus norvegicus, UniProt P30560). Kind of data set: Concentration required to displace 50% of [3H]arginine vasopressin from rat liver arginine vasopressin 1A (AVP-V1a) site.
Sequence of Vasopressin V1a receptor (P30560 whole entry): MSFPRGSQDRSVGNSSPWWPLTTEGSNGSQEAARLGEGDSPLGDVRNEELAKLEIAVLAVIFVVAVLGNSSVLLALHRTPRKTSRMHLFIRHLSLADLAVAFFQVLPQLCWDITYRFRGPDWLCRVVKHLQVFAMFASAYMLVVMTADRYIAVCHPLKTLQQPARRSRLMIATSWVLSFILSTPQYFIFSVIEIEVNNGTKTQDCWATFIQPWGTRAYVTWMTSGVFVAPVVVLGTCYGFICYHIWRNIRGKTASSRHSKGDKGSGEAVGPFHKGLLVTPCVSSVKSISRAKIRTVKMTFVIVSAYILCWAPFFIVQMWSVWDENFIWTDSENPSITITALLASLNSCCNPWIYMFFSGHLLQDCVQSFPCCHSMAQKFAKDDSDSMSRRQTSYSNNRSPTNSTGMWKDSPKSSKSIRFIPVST
The target in data set [4] is T2, Oxytocin receptor (Rattus norvegicus, UniProt P70536).
T2 sequence (P70536 whole entry): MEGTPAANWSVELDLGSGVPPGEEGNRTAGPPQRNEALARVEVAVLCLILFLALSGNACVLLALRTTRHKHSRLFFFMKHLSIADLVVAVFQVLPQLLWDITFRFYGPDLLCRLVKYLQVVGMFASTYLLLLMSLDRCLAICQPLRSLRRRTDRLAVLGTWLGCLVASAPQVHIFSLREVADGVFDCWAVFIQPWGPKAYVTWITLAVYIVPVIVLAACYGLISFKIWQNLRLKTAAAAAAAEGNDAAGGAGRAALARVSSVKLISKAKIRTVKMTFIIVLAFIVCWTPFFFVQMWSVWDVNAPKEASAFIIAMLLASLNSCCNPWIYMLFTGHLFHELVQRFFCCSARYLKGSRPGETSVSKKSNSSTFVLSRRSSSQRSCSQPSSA
Kind of data set: Compound was evaluated for OT receptor affinity by displacement of [3H]OT from binding sites in uterine tissue taken from pregnant rats.

Data set [5] addresses T2, Oxytocin receptor. Nature of the data set: Concentration required to displace 50% of [3H]oxytocin from rat uterine receptor.
The target of data set [6] is T3, Oxytocin receptor (Homo sapiens, UniProt P30559).
T3 sequence (P30559 whole entry): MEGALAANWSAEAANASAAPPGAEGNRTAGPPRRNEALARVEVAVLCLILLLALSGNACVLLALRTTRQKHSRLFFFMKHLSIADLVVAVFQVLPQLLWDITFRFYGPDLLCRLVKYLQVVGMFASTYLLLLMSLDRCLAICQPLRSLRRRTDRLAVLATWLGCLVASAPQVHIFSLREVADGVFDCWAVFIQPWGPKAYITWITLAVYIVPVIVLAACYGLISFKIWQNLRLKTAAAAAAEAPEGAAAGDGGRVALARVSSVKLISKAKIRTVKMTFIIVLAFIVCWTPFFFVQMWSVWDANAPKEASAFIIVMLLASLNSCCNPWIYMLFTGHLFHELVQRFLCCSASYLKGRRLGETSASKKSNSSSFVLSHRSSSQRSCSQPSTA
Nature of the data set: Compound was evaluated for OT receptor affinity by displacement of [3H]OT from binding sites in uterine tissue taken from nonlabor pregnant women.

The subject of data set [7] is Rattus norvegicus. Nature of the data set: Dose required for 50% reduction of the contractile response of the uterus to OT (1 ug/kg, iv bolus) in DES-pretreated rats. The data set is classed as functional.
Data set [8] deals with Vasopressin V2 receptor (Rattus norvegicus) (UniProt Q00788). Nature of the data set: Displacement of [3H]arginine vasopressin from rat kidney medullary (AVP-V2 site) at 10 uM. The data set is classed as tissue-based.
Sequence of Vasopressin V2 receptor (Rattus norvegicus) (Q00788 whole entry): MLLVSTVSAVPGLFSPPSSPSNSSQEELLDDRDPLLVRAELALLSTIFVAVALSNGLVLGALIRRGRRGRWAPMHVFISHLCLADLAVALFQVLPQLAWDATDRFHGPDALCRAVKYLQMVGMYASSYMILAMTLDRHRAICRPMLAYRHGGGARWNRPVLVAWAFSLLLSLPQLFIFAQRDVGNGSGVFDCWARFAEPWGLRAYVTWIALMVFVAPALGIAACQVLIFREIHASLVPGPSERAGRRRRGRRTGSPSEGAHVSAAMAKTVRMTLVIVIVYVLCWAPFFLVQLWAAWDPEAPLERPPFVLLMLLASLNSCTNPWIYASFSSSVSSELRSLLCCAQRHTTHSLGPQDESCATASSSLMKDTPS
For data set [9], the target named is Vasopressin V1a receptor (Rattus norvegicus) (UniProt P30560). Kind of data set: Displacement of [3H]arginine vasopressin from rat liver (AVP-V1a site) at 10 uM.
Sequence of Vasopressin V1a receptor (Rattus norvegicus) (P30560 whole entry, looked up): as the sequence (P30560 whole entry) above
Data set [10] concerns the target T4, Oxytocin receptor (Rattus norvegicus) (UniProt P70536).
T4 sequence (whole entry): T2 sequence (P70536 whole entry)
Kind of data set: Inhibition of displacement of [3H]oxytocin from rat uterine receptor at 10 uM.

The species entered for data set [11] is Rattus norvegicus. Nature of the data set: Compound was evaluated for the inhibition of accumulation of total [3H]inositol phosphates stimulated by exposure of the tissue to OT. The data set is classed as functional.
Data set [12] is filed under the species Rattus norvegicus. Kind of data set: pA2 value by AVP (V1a) stimulated contraction of the isolated rat tail artery. The note with it: read-out: pA2 (converted). The data set is classed as functional.
Data set [13] concerns the target T1, Vasopressin V2 receptor. Nature of the data set: Ability to inhibit AVP stimulation of adenylate cyclase activity in the rat kidney medulla (AVP-V2) receptor.
For data set [14], the species on record is Rattus norvegicus. Kind of data set: pA2 value was determined from regression analysis of log (dose ratio-1) vs -log [antagonist] (OT stimulated contractions in isolated uterus from DES-pretreated rats). The note with it: read-out: pA2 (converted). The data set is classed as functional.
Data set [15] is filed under the species Rattus norvegicus. Nature of the data set: Compound was evaluated for the inhibition of accumulation of total [3H]inositol phosphates stimulated by exposure of uterine slices from DES-pretreated rats to OT. The data set is classed as functional.
Data set [16] deals with T1, Vasopressin V2 receptor. Kind of data set: Concentration required to displace 50% of [3H]arginine vasopressin from rat kidney medullary (AVP-[…] site).

T1 sequence (Q00788 whole entry): as the sequence (Q00788 whole entry) above

Consider `CC[C@H](C)[C@@H]1NC(=O)[C@@H](Cc2c[nH]c3ccccc23)NC(=O)[C@@H]2CCCN2C(=O)[C@@H](Cc2ccccc2)N(C)C(=O)[C@@H]2CNCCN2C(=O)[C@H]2CCCCN2C1=O` (cyclo(I[dPip][Pip(4-aza)][dNMeF]P[dW])), for which the concentration in solution in data set [1] (solubility) was 1400 µg/mL (≈ 1790 µM). The pIC50 on Vasopressin V2 receptor [2] is 6.16; at Vasopressin V1a receptor, 4.49; on Oxytocin receptor [5], 8.08. Further, the Kb in the data set listed under Rattus norvegicus [3] was 2.57 nM. Also, the pKi was 8.47 at Oxytocin receptor [4] and 8.35 at Oxytocin receptor [6]. Also, the AD50 with Rattus norvegicus [7] was 101 µg/kg.
As for `CC[C@H](C)[C@@H]1NC(=O)[C@@H](Cc2ccc3ccccc3c2)NC(=O)[C@@H]2CCCN2C(=O)[C@@H](Cc2ccccc2)N(C)C(=O)[C@H](CCCCN)NC(=O)[C@H]2CCCCN2C1=O` (cyclo(I[dPip]K[dNMeF]P[d2Nal])), in data set [1], the solubility was 1700 µg/mL (≈ 2100 µM). For the same compound, the negative-log IC50 (pIC50) was 6.96 at Vasopressin V2 receptor [2], 5.89 at Vasopressin V1a receptor and 7.89 at Oxytocin receptor [5].
In the case of `CC[C@H](C)[C@@H]1NC(=O)[C@@H](Cc2c[nH]c3ccccc23)NC(=O)[C@@H]2CCCN2C(=O)[C@@H](Cc2c[nH]cn2)NC(=O)[C@@H]2CCCCN2C(=O)[C@H]2CCCCN2C1=O` (cyclo(I[dPip][Pip][dH]P[dW])) [listing 1 of 3 here], the AD50 in the data set on Rattus norvegicus [7] amounted to 1.3 µg/kg.
On to `CC[C@H](C)[C@@H]1NC(=O)[C@H](C)NC(=O)[C@@H]2CCCN2C(=O)[C@@H](Cc2ccccc2)N(C)C(=O)[C@@H]2CCCCN2C(=O)[C@H]2CCCCN2C1=O`, for which the figures for the inhibition in data set [8], in data set [9] and in [10] were 4%, 0% and 0%, respectively.
For the compound `C=CCN1C(=O)[C@@H]2CCCCN2C(=O)[C@H]2CCCCN2C(=O)[C@H]([C@@H](C)CC)NC(=O)[C@@H](Cc2ccccc2)NC(=O)[C@@H]2CCCN2C(=O)[C@H]1Cc1ccccc1` (cyclo(I[dPip][Pip][X1]P[dF])), the inhibition in data set [8] amounted to 77%; in [9], 45%. On Oxytocin receptor [5], this compound showed a pIC50 of 6.72.
For `CC[C@H](C)[C@@H]1NC(=O)[C@@H](Cc2ccccc2)NC(=O)[C@@H]2CCCN2C(=O)[C@@H](Cc2ccccc2)N(C)C(=O)[C@@H]2CCCCN2C(=O)[C@H]2CCCN2C1=O` (cyclo(I[dP][Pip][dNMeF]P[dF])), the inhibition in data set [8] amounted to 43%; in [9], 23%. Further, at Oxytocin receptor [5], the negative logarithm of the IC50 (pIC50) was 6.27.
In data set [1], `CC[C@H](C)[C@@H]1NC(=O)[C@@H](Cc2c[nH]c3ccccc23)NC(=O)[C@@H]2CCCN2C(=O)[C@@H](Cc2c[nH]cn2)NC(=O)[C@@H]2CCCCN2C(=O)[C@H]2CCC=NN2C1=O` came in with a solubility of 1900 µg/mL (≈ 2520 µM). Moreover, the pIC50 on Vasopressin V2 receptor [2] is 5.96; in the data set listed under Rattus norvegicus [11] it was 7.38. Also, in the data set filed under Rattus norvegicus [3], the Kb was 1.51 nM. In addition, the AD50 with Rattus norvegicus [7] was determined as 90.3 µg/kg.
In [1], `CC[C@H](C)[C@@H]1NC(=O)[C@@H](Cc2ccccc2)NC(=O)[C@@H]2CCCN2C(=O)[C@@H](Cc2ccccc2)N(C)C(=O)[C@H](CCCN)NC(=O)[C@H]2CCC=NN2C1=O` showed a solubility of 1500 µg/mL (≈ 2020 µM). In the data set filed under Rattus norvegicus [3], the Kb was 3.39 nM. The compound further gave a pIC50 on Vasopressin V1a receptor of 6.10. Besides, the AD50 in the data set with Rattus norvegicus [7] was found to be 71.6 µg/kg.
Take `CC[C@H](C)[C@@H]1NC(=O)[C@@H](Cc2ccc3ccccc3c2)NC(=O)[C@@H]2CCCN2C(=O)[C@@H](Cc2c[nH]cn2)NC(=O)[C@@H]2CCCCN2C(=O)[C@H]2CCCCN2C1=O` (cyclo(I[dPip][Pip][dH]P[d2Nal])): the solubility in [1] came out at 1500 µg/mL (≈ 1960 µM). The Kb is 282 nM in the data set filed under Rattus norvegicus [12] and 2.95 nM in the data set listed under Rattus norvegicus [3]. The negative-log IC50 (pIC50) against Vasopressin V2 receptor [13] is 6.09; at Vasopressin V2 receptor [2], 6.04; in the data set filed under Rattus norvegicus [11], 7.40; at Vasopressin V1a receptor, 5.59; at Oxytocin receptor [5] it was 8.66. Also, the pKi at Oxytocin receptor [4] is 9.15; at Oxytocin receptor [6], 8.29. For the same compound, the AD50 with Rattus norvegicus [7] stood at 102 µg/kg.
As for `CC[C@H](C)[C@@H]1NC(=O)[C@@H](Cc2c[nH]c3ccccc23)NC(=O)[C@@H]2CCCN2C(=O)[C@@H](Cc2c[nH]cn2)NC(=O)[C@@H]2CCCCN2C(=O)[C@H]2CCCCN2C1=O` (cyclo(I[dPip][Pip][dH]P[dW])) [listing 2 of 3 here], the Kb in the data set filed under Rattus norvegicus [12] is 871 nM; in the data set listed under Rattus norvegicus [14], 2.51 nM. Besides, the pIC50 in the data set filed under Rattus norvegicus [15] is 7.17.
For the compound `CC[C@H](C)[C@@H]1NC(=O)[C@@H](Cc2ccccc2)NC(=O)[C@@H]2CCCN2C(=O)[C@@H](Cc2ccccc2)N(C)C(=O)[C@@H]2CCCN2C(=O)[C@H]2CCCCN2C1=O`, the inhibition worked out at 39% in data set [8] and 33% in data set [9]. This compound had a pIC50 at Oxytocin receptor [5] of 6.17.
Turning to `CC[C@H](C)[C@@H]1NC(=O)[C@@H](Cc2c[nH]c3ccccc23)NC(=O)[C@@H]2CCCN2C(=O)[C@@H](Cc2c[nH]cn2)NC(=O)[C@@H]2CCCCN2C(=O)[C@H]2CCCCN2C1=O` (cyclo(I[dPip][Pip][dH]P[dW])) [listing 3 of 3 here], the solubility in data set [1] was found to be 2000 µg/mL (≈ 2650 µM). In addition, the pIC50 is 5.51 against Vasopressin V2 receptor [13], 5.28 on Vasopressin V2 receptor [2] and 5.13 at Vasopressin V1a receptor.
`CC[C@H](C)[C@H]1C(=O)N2CCCC[C@@H]2C(=O)N2CCCC[C@H]2C(=O)N(C)[C@H](Cc2ccccc2)C(=O)N2CCC[C@H]2C(=O)N[C@H](Cc2ccccc2)C(=O)N1C`: the inhibition in [8] stood at 19%; in [9], 18%. This compound had a pIC50 on Oxytocin receptor [5] of 4.60.
On to `CC[C@H](C)[C@@H]1NC(=O)[C@@H](Cc2c[nH]c3ccccc23)NC(=O)[C@@H]2CCCN2C(=O)[C@@H](Cc2ccccc2)N(C)C(=O)[C@H](CCCCN)NC(=O)[C@H]2CCCCN2C1=O` (cyclo(I[dPip]K[dNMeF]P[dW])), for which the pIC50 is 5.80 at Vasopressin V1a receptor and 6.39 at Vasopressin V2 receptor [16].
In the case of `CC[C@H](C)[C@@H]1NC(=O)[C@@H](Cc2ccccc2)NC(=O)[C@@H]2CCCN2C(=O)[C@@H](C)N(C)C(=O)[C@@H]2CCCCN2C(=O)[C@H]2CCCCN2C1=O` (cyclo(I[dPip][Pip][dNMeA]P[dF])), the inhibition is 12% in data set [8] and 20% in [9]. The pIC50 at Oxytocin receptor [5] is 5.92.
